From patent US10980764B1, “Exogenous ketone supplements for reducing anxiety-related behavior” (priority 2016, dated 2021)

What was measured:
[1] = test system: Sprague-Dawley (SPD) rats; assay: EPM after 7 days oral gavage, SPD rats, Study 1; assay type: in vivo, rat; conditions: compared to control (SD); for Time spent in the center: 7 days (gavage 5 g/kg b.w./day or KD fed)
Experimental: EPM (COULBOURN Instruments) was used to assess anxiety-related behavior of the rats after 83 days of chronic feeding or after 7 days of oral gavage. EPM experiments were carried out under non-stressful conditions (in a dimly lit and quiet room) between 12.00 and 14.00 hours.
The rats were transferred in their home cage to the experimental room 30 min prior to beginning the experiment. Briefly, rats were placed in the intersection of the four arms of the EPM, facing the open arm opposite to where the experimenter was and their behavior was recorded for 5 minutes. The amount of time spent and number of entries made on the open arms, closed arms and the center zones were recorded. Latency to entry into the closed arms and the distance travelled in each zones was also measured in chronically treated SPD rats. Notes were made on other ethological measures such as number of rears, head dips, fecal boli, and freezing, or stretched-attend postures.
At the end of the 5-minute test the rats were removed from the maze and placed back into their home cage. The maze was cleaned with 70% alcohol and after it with tap water and dried with paper towel between rats. The primary method for data collection was a video-tracking system with computer interface and video camera (SMART V3.0 PLATFORM, PANLAB, Harvard Apparatus, USA), to automatically collect behavioral data in SPD rats. A blinded observer was present in the testing room separated from the maze by a curtain, and manually collected EPM data in both SPD and WAG/Rij animals at the end of treatments.
(§1) All data are presented as the mean±standard error of the mean (SEM). The effects of ketone supplementations on anxiety level were compared, as well as on blood βHB and glucose levels to control or/and baseline levels. Data analysis was performed using GraphPad PRISM version 6.0a. Results were considered significant when p<0.05. Significance was determined by unpaired t-test. Blood ketone, blood glucose, and body weight change were compared using a two-way ANOVA with Tukey's multiple comparisons test and unpaired t-test.

[2] = Blood βHB and glucose levels (PRECISION XTRA), SPD rats, Study 1; conditions: for Glucose, Mean Diff., Tukey's multiple comparisons test (Compare S-D to WagRij) / βHB, Mean Diff., Tukey's multiple comparisons test (Compare S-D to WagRij): S-D (SPD) rats, own Baseline minus 7 days of the same group; for Blood glucose levels: at 24 hours; for Blood βHB (90 days), Mean Diff., Tukey's multiple comparisons test: chronic feeding, After:SD (control) minus After:treated group
Experimental: In order to familiarize the animals to the intragastric gavage method, tap water was gavaged for 5 days before ketone supplementation. A total of 48 male SPD rats were fed for 83 days with either standard rodent chow (SD)+water application (˜25 g/kg b.w. water/day) (SD/control group; n=9) or SD+ketone supplementation by gavage.
In the chronic feeding study, blood βHB and glucose levels were measured 24 hours before the 1st day of ketone treatments (baseline levels) and after the 13th week of ketone treatment. In the 7-day oral gavage studies, blood βHB and glucose levels were measured 24 hours before the 1st day of ketone treatments (baseline levels; SPD and WAG/Rij rats) and after the 1st day (SPD rats) and the 7th day (SPD and WAG/Rij rats) of ketone gavaging. In acute study, blood βHB and glucose levels were measured 40 min after ketone treatment. Whole blood samples (10 μL) were taken from the saphenous vein for analysis of blood glucose (mg/dl) and βHB (mmol/1) levels with the commercially available glucose and ketone monitoring system PRECISION XTRA™ (ABBOTT Laboratories, Abbott Park, Ill., USA). The PRECISION XTRA™ ketone monitoring system only measures βHB blood levels; therefore, total blood ketone levels would be higher than measured.
as §1

[3] = Blood βHB and glucose levels (PRECISION XTRA), WAG/Rij rats, Study 1; assay type: in vivo, rat; conditions: for Blood βHB: WAG/Rij rats, after 7 days of gavaging ~2.5 g/kg b.w./day, compared to baseline; for Glucose, Mean Diff., Tukey's multiple comparisons test (Compare S-D to WagRij) / βHB, Mean Diff., Tukey's multiple comparisons test (Compare S-D to WagRij): WR (WAG/Rij) rats, own Baseline minus 7 days of the same group
[4] = Body weight, SPD rats, Study 1; assay type: in vivo, rat; conditions: for Body Weight (7 days), Mean Diff., Tukey's multiple comparisons test: in g (unit assumed)
Experimental: The body weight of all animals was recorded before ketone treatments started (before) and after the last ketone treatments (after).
Results were considered significant when p<0.05. […]

[5] = Blood βHB and glucose levels (Precision Xtra), SPD rats, Study 3
Source text: A total of 48 male SPD rats were fed for 83 days with either standard rodent chow (2018 Teklad Global 18% Protein Rodent Diet (#2018), Harlan) (SD/control; n=9) or SD+ketone supplementation. […] Higher dose was used for chronic administration, as the rats were consuming food-integrated ketone supplementation throughout the day, not at a single time point.
In order to familiarize the animals to the intragastric gavage method, water was gavaged for 5 days prior to ketone supplementation.
(§2) In the chronic feeding study, blood βHB and glucose levels were measured 24 hours before the 1st day of ketone treatments (baseline levels) and at the 13th week after the EPM experiment. In the 7-day oral gavage studies, blood βHB and glucose levels were measured 24 hours before the 1st day of ketone treatments (baseline levels; SPD and WAG/Rij rats), 24 hours after the first gavage, and 60 min after gavage on the 7th day (SPD and WAG/Rij rats). Whole blood samples (10 μL) were taken from the saphenous vein for analysis of blood glucose (mg/dl) and βHB (mmol/1) levels with the commercially available glucose and ketone (βHB) monitoring system Precision Xtra™ (Abbott Laboratories, Abbott Park, Ill., USA).
(§3) All data are presented as the mean±standard error of the mean (SEM). The effects of ketone supplementations on anxiety-related behavior were compared, as well as on blood βHB and glucose levels to control or/and baseline levels. Data analysis was performed using GraphPad PRISM version 6.0a. Results were considered significant when p<0.05. Significance was determined by one-way ANOVA with Fisher s LSD test for the behavioral data. Blood ketone, blood glucose, and body weight change were compared using a two-way ANOVA with Tukey's multiple comparisons test.

[6] = Blood βHB and glucose levels (Precision Xtra), WAG/Rij rats, Study 3
Experimental: For the sub-chronic gavage administration, the gavage dose was used that induced desired elevation of blood ketone based on the current inventors' previous studies (Kesl et al. 2016).
as §2, §3

[7] = Blood βHB and glucose compared between SPD and WAG/Rij rats, Study 1; assay type: in vivo, rat; conditions: for Glucose, Mean Diff., Tukey's multiple comparisons test (Compare S-D to WagRij) / βHB, Mean Diff., Tukey's multiple comparisons test (Compare S-D to WagRij): 7 days:S-D minus 7 days:WR, same supplement (5 vs 2.5 g/kg/day); for βHB levels in WAG/Rij rats compared to SPD rats: before (baseline) and after sub-chronic ketone supplementation
[8] = SPD rats, 7 days of gavaging, compared to baseline
[9] = SPD rats, after 83 days of chronic feeding, compared to control
[10] = SPD rats, 24h:SD (control) minus 24h:treated group
[11] = After:SD (control) minus After:treated group

Molecule	Time spent in the center [1]	Glucose, Mean Diff., Tukey's multiple comparisons test (Compare S-D to WagRij) [2] [mg/dL]	βHB, Mean Diff., Tukey's multiple comparisons test (Compare S-D to WagRij) [2] [mmol/1]	Blood βHB [2, 8]	Blood βHB [2, 9]	Blood glucose levels ([2]; SPD rats, compared to baseline)	Blood βHB (90 days), Mean Diff., Tukey's multiple comparisons test ([2]; SPD rats) [mmol/1]	Blood βHB [3]	Glucose, Mean Diff., Tukey's multiple comparisons test (Compare S-D to WagRij) [3] [mg/dL]	βHB, Mean Diff., Tukey's multiple comparisons test (Compare S-D to WagRij) [3] [mmol/1]	Body Weight (7 days), Mean Diff., Tukey's multiple comparisons test [4, 11]	Glucose, Mean Diff., Tukey's multiple comparisons test (Compare S-D to WagRij) [7] [mg/dL]	βHB, Mean Diff., Tukey's multiple comparisons test (Compare S-D to WagRij) [7] [mmol/1]	βHB levels in WAG/Rij rats compared to SPD rats [7]	further results
CC(=O)CC(=O)OCCC(C)OC(=O)CC(C)=O (centres unmarked) [KE, 1,3-butanediol-acetoacetate diester]	decreased	-1.841	−0.1389	did not change	elevated	lower	−0.2978	elevated	-2.75	−0.6125	37.03	27.5	−0.9653	Higher	Time spent in the open arms ([1]; 7 days gavage 5 g/kg b.w./day): increased; Blood βHB levels ([2]; SPD rats, 24 hours after a single gavage, compared to baseline): elevated; Blood glucose levels ([2]; SPD rats, compared to control group): lower; Blood glucose ([2]; SPD rats, from baseline to 7 days): did not change; Blood Glucose (7 days), Mean Diff., Tukey's multiple comparisons test [2, 10]: 33.11 mg/dL; Blood βHB (7 days), Mean Diff., Tukey's multiple comparisons test [2, 10]: −0.5235 mmol/1; Blood Glucose (7 days), Mean Diff., Tukey's multiple comparisons test ([2]; SPD rats, 24h minus 7days of the same group): -23.02 mg/dL; Blood Glucose (7 days), Mean Diff., Tukey's multiple comparisons test ([2]; SPD rats, own Baseline minus 24h of the same group): 21.18 mg/dL; Body weight ([4]; after chronic feeding (week 13), compared to control, listed as SD+LKE): higher; Body Weight (90 days), Mean Diff., Tukey's multiple comparisons test ([4]; chronic feeding, After:SD (control) minus After:treated group): 73.96; Blood βHB levels ([5]; SPD rats, 24 hours after a single gavage, compared to control): elevated; Blood glucose ([5]; SPD rats, after 13 weeks of chronic feeding): lower; Blood βHB levels [5, 9]: significantly elevated; Blood glucose levels ([5]; SPD rats, sub-chronic, at 24 hours, compared to control): lower; Glucose levels ([6]; WAG/Rij rats, after 24h, compared to baseline levels): lower; Glucose levels ([6]; WAG/Rij rats, after 7 days compared to the level at 24h): elevated; Blood βHB ([6]; WAG/Rij rats, after 7 days of gavage, compared to baseline, 24 hours and control): elevated
Na^+/K^+-βHB mineral salt [KS]	decreased	-0.3258	−0.4455	significant difference	elevated	lower	−0.3653	elevated	-6.5	−0.5375	48.25	15.28	−0.5614	Higher	Entries to the center ([1]; 7 days gavage 5 g/kg b.w./day): fewer times; Entries to the closed arms ([1]; 7 days gavage 5 g/kg b.w./day): less frequent; Blood βHB (7 days), Mean Diff., Tukey's multiple comparisons test ([2]; SPD rats, 7days:SD (control) minus 7days:treated group): −0.547 mmol/1; Blood βHB ([5]; rat, in vivo): elevated; Blood βHB ([6]; rat, in vivo): elevated
